Here are results for 41 compounds from patent US20100173888A1 (Pfizer Inc, priority 2008, published 2010).

SMILES strings stand for the structures.

Sequence of human recombinant H-PGDS (O60760 whole entry): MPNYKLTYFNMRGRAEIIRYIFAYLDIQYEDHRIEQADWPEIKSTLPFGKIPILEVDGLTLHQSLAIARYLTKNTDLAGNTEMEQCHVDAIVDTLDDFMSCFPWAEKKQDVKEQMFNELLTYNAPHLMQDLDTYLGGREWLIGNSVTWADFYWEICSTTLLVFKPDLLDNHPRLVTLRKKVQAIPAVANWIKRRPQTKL

For this test, the target named is human recombinant H-PGDS (Homo sapiens, UniProt O60760). As to the kind of experiment: Fluorescence intensity h-PGDS TBA enzyme assay (PGH2 depletion, MDA/TBA fluorescence). The test is classed as biochemical. The settings on record: 1:175,000 human recombinant H-PGDS, 42 second reaction, 3-fold serial dilutions, highest concentration typically 1 μM. In a few lines:
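Recombinant human H-PGDS preincubated with inhibitor 10 min at room temperature in pH 8.0 Tris, MgCl2, IgG, 2.5 mM glutathione, 0.5% DMSO. Reaction with 5.0 μM PGH2 stopped at 42 s with FeCl2/citric acid; MDA–TBA fluorescence (ex 530/em 565 nm) read after 70° C. IC50 by 4-parameter fit, 11 concentrations.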
As for `O=C(NC1CCCc2ccccc21)c1ccc(-c2ccccc2)nc1` (centres unmarked) [Example 120, 6-Phenyl-N-(1,2,3,4-tetrahydronaphthalen-1-yl)nicotinamide], the IC50 – broadly, the concentration that inhibits the measured activity by half – was found to be 1.77 nM.
Turning to `COC[C@H]1CCC[C@H]1NC(=O)c1ccc(-c2cccc(F)c2)nc1` [Example 10], the IC50 came out at 94.3 nM.
With `CN(C)C(=O)[C@H]1CC[C@@H](NC(=O)c2ccc(-c3cccc(F)c3)nc2)C1` [Example 165, N-[(1R,3S)-3-Dimethylcarbamoyl-cyclopentyl]-6-(3-fluorophenyl)nicotinamide], the IC50 worked out at 16.9 nM.
To `O=C(N[C@H]1CC[C@H](C(=O)N[C@@H]2CCOC2)CC1)c1ccc(-c2cccc(F)c2)nc1` [Example 113E, 6-(3-fluorophenyl)-N-{trans-4-[(3R)-tetrahydrofuran-3-ylcarbamoyl]cyclohexyl}nicotinamide] belongs 8.8 nM; to `O=C(N[C@@H]1CCC[C@@H](C(=O)O)C1)c1ccc(-c2cccc(F)c2)nc1` (relative stereo) [Example 238A, trans-3-({[6-(3-Fluorophenyl)pyridin-3-yl]carbonyl}amino)cyclohexanecarboxylic acid], 27.4 nM.
To `CC[C@H](O)C(=O)N[C@H]1CC[C@H](NC(=O)c2ccc(-c3cccc(F)c3)nc2)CC1` [Example 113L, 6-(3-fluorophenyl)-N-(trans-4-{[(2S)-2-hydroxybutanoyl]amino}cyclohexyl)nicotinamide] belongs 6.1 nM; to `CC(=O)N1CC(NC[C@H]2CCC[C@@H](NC(=O)c3ccc(-c4cccc(F)c4)nc3)C2)C1` (relative stereo) [Example 257], 34.5 nM.
The same measure for `CCN1CCC(CNC(=O)[C@H]2CC[C@H](NC(=O)c3ccc(-c4cccc(F)c4)nc3)CC2)C1` (relative stereo) [Example 113F, N-(trans-4-{[(1-ethylpyrrolidin-3-yl)methyl]carbamoyl}cyclohexyl)-6-(3-fluorophenyl)nicotinamide]: 60 nM; for `N[C@H]1CC[C@@H](NC(=O)c2ccc(-c3cccc(F)c3)nc2)CC1` [Example 155, N-(cis-4-Aminocyclohexyl)-6-(3-fluorophenyl)nicotinamide]: 97.8 nM; for `O=C(N[C@@H]1CCC[C@@H](C(=O)N2CCNCC2)C1)c1ccc(-c2cccc(F)c2)nc1` (relative stereo) [Example 243]: 29.1 nM.
Consider `CC(C)(CCO)NC(=O)[C@@H]1CC[C@H](NC(=O)c2ccc(-c3cccc(F)c3)nc2)C1` [Example 172, 6-(3-Fluorophenyl)-N-{(1S,3R)-3-[(3-hydroxy-1,1-dimethylpropyl)carbamoyl]cyclopentyl}nicotinamide], for which the half-inhibitory concentration (IC50) came to 6.4 nM.
To `N[C@@H]1[C@H]2CN(C(=O)[C@H]3CC[C@H](NC(=O)c4ccc(-c5cccc(F)c5)nc4)CC3)C[C@@H]12` [Example 210, N-(trans-4-{[(1R,5S,6S)-6-Amino-3-azabicyclo[3.1.0]hex-3-yl]carbonyl}cyclohexyl)-6-(3-fluorophenyl)nicotinamide] belongs 9.6 nM; to `COCC1(O)CCC(NC(=O)c2ccc(-c3cccc(F)c3)nc2)CC1` (centres unmarked) [Example 235, 6-(3-Fluorophenyl)-N-[4-hydroxy-4-(methoxymethyl)cyclohexyl]nicotinamide], 11.8 nM.
Take `CNC(=O)N[C@H]1CC[C@@H](NC(=O)c2ccc(-c3cccc(F)c3)nc2)CC1` [Example 236, 6-(3-Fluorophenyl)-N-{cis-4-[(methylcarbamoyl)amino]cyclohexyl}nicotinamide]: the IC50 turned out to be 5.7 nM.
To `C[C@@H](CO)NC(=O)[C@H]1CCC[C@@H](NC(=O)c2ccc(-c3cccc(F)c3)nc2)C1` [Example 188] belongs 17.1 nM; to `CC(C)OCC1(O)CCC(NC(=O)c2ccc(-c3cccc(F)c3)nc2)CC1` (centres unmarked) [Example 226, 6-(3-Fluorophenyl)-N-[4-hydroxy-4-(isopropoxymethyl)cyclohexyl]nicotinamide], 13.2 nM.
Consider `CCN1CCN(C(=O)C2(C#N)CCCC(NC(=O)c3ccc(-c4cccc(F)c4)nc3)C2)CC1` (centres unmarked) [Example 264, N-{3-Cyano-3-[(4-ethylpiperazin-1-yl)carbonyl]cyclohexyl}-6-(3-fluorophenyl)nicotinamide], for which the IC50 amounted to 9.2 nM.
For `O=C(CO)N[C@H]1CC[C@@H](NC(=O)c2ccc(-c3cccc(F)c3)nc2)CC1` [Example 220, 6-(3-fluorophenyl)-N-[cis-4-(glycoloylamino)cyclohexyl]nicotinamide], the IC50 is 32.7 nM.
To `NC1CCN(C(=O)[C@@H]2CC[C@H](NC(=O)c3ccc(-c4cccc(F)c4)nc3)C2)CC1` [Example 177, N-{(1S,3R)-3-[(4-Aminopiperidin-1-yl)carbonyl]cyclopentyl}-6-(3-fluorophenyl)nicotinamide] belongs 21.4 nM; to `COC(=O)C1(NC(=O)c2ccc(-c3cccc(F)c3)nc2)CC1` [Example 2, Methyl 1-({[6-(3-fluorophenyl)pyridin-3-yl]carbonyl}amino)cyclopropanecarboxylate], 319 nM; to `COCCNC(=O)[C@@H]1CC[C@H](NC(=O)c2ccc(-c3cccc(F)c3)nc2)C1` [Example 169, 6-(3-Fluorophenyl)-N-{(1S,3R)-3-[(2-methoxyethyl)carbamoyl]cyclopentyl}nicotinamide], 15.1 nM.
To `COCC(=O)NC[C@H]1CCC[C@@H](NC(=O)c2ccc(-c3cccc(F)c3)nc2)C1` (relative stereo) [Example 252] belongs 17.1 nM.
Consider `CN(C)CCNC(=O)[C@H]1CC[C@@H](NC(=O)c2ccc(-c3cccc(F)c3)nc2)C1` [Example 183], for which the IC50 was determined as 75.2 nM.
With `O=C(N[C@@H]1CC[C@H](C(=O)N2CC[C@@H](F)C2)C1)c1ccc(-c2cccc(F)c2)nc1` [Example 180, 6-(3-Fluorophenyl)-N-[(1R,3S)-3-{[(3R)-3-fluoropyrrolidin-1-yl]carbonyl}cyclopentyl]nicotinamide], the IC50 was found to be 8.9 nM.
For `CC(C)(O)[C@@H]1CCC[C@H](NC(=O)c2ccc(-c3cccc(F)c3)nc2)C1` (relative stereo) [Example 262], the half-inhibitory concentration (IC50) is 81 nM.
For the compound `CN(C)C(=O)[C@@H]1CCC[C@@H](NC(=O)c2ccc(-c3cccc(F)c3)nc2)C1` (relative stereo) [Example 238], the IC50 was 47.1 nM.
Turning to `O=C(N[C@H]1CCC[C@H](CO)C1)c1ccc(-c2cccc(F)c2)nc1` (relative stereo) [Example 250], the IC50 is 26.4 nM.
The same measure for `C[C@H](CO)NC(=O)[C@@H]1CC[C@H](NC(=O)c2ccc(-c3cccc(F)c3)nc2)C1` [Example 164, 6-(3-Fluorophenyl)-N-{(1S,3R)-3-[(2-hydroxy-1-methylethyl)carbamoyl]cyclopentyl}nicotinamide]: 16.1 nM; for `O=C(N[C@H]1CC[C@@H](C(=O)N2CCC(CCO)CC2)C1)c1ccc(-c2cccc(F)c2)nc1` [Example 168, 6-(3-Fluorophenyl)-N-[(1S,3R)-3-{(4-(2-hydroxyethyl)piperidin-1-yl]carbonyl}cyclopentyl]nicotinamide]: 4.4 nM.
Consider `NCC(=O)N[C@H]1CC[C@H](NC(=O)c2ccc(-c3cccc(F)c3)nc2)CC1` [Example 146, 6-(3-Fluorophenyl)-N-[trans-4-(glycylamino)cyclohexyl]nicotinamide], for which the IC50 was found to be 21 nM.
In the case of `COc1cccc(-c2ccc(C(=O)NC3CCCc4ccccc43)cn2)c1` (centres unmarked) [Example 121, 6-(3-Methoxyphenyl)-N-(1,2,3,4-tetrahydronaphthalen-1-yl)nicotinamide], the IC50 came to 88 nM.
The same measure for `Cc1nnc(C[C@H]2CC[C@@H](NC(=O)c3ccc(-c4cccc(F)c4)nc3)CC2)o1` [Example 273, 6-(3-Fluorophenyl)-N-{cis-4-[(5-methyl-1,3,4-oxadiazolyl-2-yl)methyl]cyclohexyl}nicotinamide]: 5.4 nM; for `O=C(NC1CCCc2ccccc21)c1ccc(-c2ccc(F)cc2)nc1` (centres unmarked) [Example 123, 6-(4-Fluorophenyl)-N-(1,2,3,4-tetrahydronaphthalen-1-yl)nicotinamide]: 30 nM; for `O=C(N[C@@H]1CCCC[C@@H]1CO)c1ccc(-c2cccc(F)c2)nc1` [Example 24]: 20.1 nM.
Regarding `CN(C)CC(=O)N[C@H]1CC[C@@H](NC(=O)c2ccc(-c3cccc(F)c3)nc2)CC1` [Example 221, N-{cis-4-[(N,N-dimethylglycyl)amino]cyclohexyl}-6-(3-fluorophenyl)nicotinamide], the IC50 was determined as 52.7 nM.
As to `CC(C)(O)C(=O)N[C@H]1CCC[C@H](NC(=O)c2ccc(-c3cccc(F)c3)nc2)C1` (relative stereo) [Example 248, 6-(3-Fluorophenyl)-N-trans-[3-(2-hydroxy-2-methylpropionylamino)cyclohexyl]nicotinamide], the IC50 was 10.4 nM.
Turning to `O=C(N[C@H]1CC[C@@H](C(=O)N2CCNCC2)C1)c1ccc(-c2cccc(F)c2)nc1` [Example 176, 6-(3-Fluorophenyl)-N-[(1S,3R)-3-(piperazin-1-ylcarbonyl)cyclopentyl]nicotinamide], the IC50 turned out to be 9 nM.
The same measure for `CC[C@@H](O)C(=O)N[C@H]1CC[C@H](NC(=O)c2ccc(-c3cccc(F)c3)nc2)CC1` [Example 113J, 6-(3-fluorophenyl)-N-(trans-4-{[(2R)-2-hydroxybutanoyl]amino}cyclohexyl)nicotinamide]: 6.6 nM; for `C[C@@H](CO)NC(=O)[C@H]1CCC[C@@H](NC(=O)c2ccc(-c3cccc(F)c3)nc2)C1` [Example 194]: 14.7 nM; for `CC(C)(O)CNC(=O)[C@@H]1CCC[C@H](NC(=O)c2ccc(-c3cccc(F)c3)nc2)C1` (stereo in doubt) [Example 195, 6-(3-Fluorophenyl)-N-{(1S,3R)-3-[(2-hydroxy-2-methylpropyl)carbamoyl]cyclohexyl}nicotinamide]: 11.8 nM.
The same measure for `CC(=O)NC(C)[C@H]1CC[C@H](NC(=O)c2ccc(-c3cccc(F)c3)nc2)CC1` (stereo partly drawn) [Example 147, N-[trans-4-(1-Acetamidoethyl]cyclohexyl]-6-(3-fluorophenyl)nicotinamide]: 5.7 nM.
